Experimental findings from publication PMC8881610 (Nature Communications, 2022) are described below.

Common to all, as to assay: cAMP accumulation assay, GCGR WT, mutant or modified constructs
Common to all, as to format: cell-based
Design in all cases: V5 (C); 6×His (C); expressed in transfected cells; host or cells: HEK293T
For orientation: Changes in cAMP serve as a functional read-out for many G protein-coupled receptors.

The target of test [1] is GCGR (Homo sapiens, UniProt P47871, D195A). Particulars: HEK-293T, GCGR D195A; HEK293T. How it is done: (§1) Human embryonic kidney 293 cells containing SV40 large T-antigen (HEK293T) were cultured in DMEM (Gibco) supplemented with 10% (v/v) fetal bovine serum (FBS, Gibco), 1 mM sodium pyruvate (Gibco) and 100 units/mL penicillin and 100 μg/mL streptomycin at 37 °C in 5% CO2. Chinese hamster ovary (CHO-K1) cells were cultured in F-12 (Gibco) containing 10% FBS, 100 units/mL penicillin and 100 μg/mL streptomycin at 37 °C in 5% CO2. For cAMP and receptor expression assays, HEK293T cells were seeded into 6-well cell culture plates at a density of 7 × 10^5 cells per well. After overnight incubation, cells were transfected with GIPR, GLP-1R or GCGR construct using Lipofectamine 2000 or Lipofectamine 3000 transfection reagent (Invitrogen). For whole-cell binding assay, CHO-K1 cells were seeded into 96-well fibronectin-treated cell culture plates at a density of 3 × 10^4 cells per well. After overnight incubation, cells were transfected with GIPR, GLP-1R or GCGR construct using Lipofectamine 2000 transfection reagent (Invitrogen). Following 24 h culturing, the transfected cells were ready for use. […]
(§2) For GIPR, GLP-1R and GCGR, multi-targeting agonist stimulated cAMP accumulation was measured by a LANCE Ultra cAMP kit (PerkinElmer). After 24 h culture, the transfected cells were seeded into 384-well microtiter plates at a density of 3,000 cells per well in HBSS supplemented with 5 mM HEPES, 0.1% (w/v) BSA or 0.1% (w/v) casein and 0.5 mM 3-isobutyl-1-methylxanthine. The cells were stimulated with different concentrations of peptide agonists for 40 min at RT. Eu-cAMP tracer and ULight^TM-anti-cAMP were then diluted by cAMP detection buffer and added to the plates separately to terminate the reaction. Plates were incubated at RT for 1 h and the fluorescence intensity measured at 620 nm and […] by an EnVision multilabel plate reader (PerkinElmer).

Test [2] addresses GCGR (Homo sapiens, UniProt P47871, D195A/Q142A/R199A). Particulars: HEK-293T, GCGR Q142A/D195A/R199A; HEK293T. As to the method:
as §1, §2

Test [3] has as its target GCGR (Homo sapiens, UniProt P47871, K205A). To be noted: GCGR K205A, HEK293T. How it is done:
as §1, §2

The target in test [4] is GCGR (Homo sapiens, UniProt P47871, Q131A). To be noted: GCGR Q131A, HEK293T. How it is done: as §1, §2
Test [5] deals with GCGR (Homo sapiens, UniProt P47871, R199A). To be noted: GCGR R199A, HEK293T. As to the method: as §1, §2
Test [6] deals with GCGR (Homo sapiens, UniProt P47871, W215A). To be noted: HEK-293T, GCGR W215A; HEK293T. How it is done:
as §1, §2

Test [7] addresses GCGR (Homo sapiens, UniProt P47871, W87A). Particulars: HEK-293T, GCGR W87A; HEK293T. How it is done:
as §1, §2

For test [8], the target named is GCGR (Homo sapiens, UniProt P47871, Y138A). To be noted: HEK-293T, GCGR Y138A; HEK293T. How it is done:
as §1, §2

Test [9] has as its target GCGR (Homo sapiens, UniProt P47871, Y145A). Particulars: HEK-293T, GCGR Y145A; HEK293T. As to the method:
as §1, §2

Test [10] addresses GCGR (Homo sapiens, UniProt P47871, Y202A). To be noted: HEK-293T, GCGR Y202A; HEK293T. How it is done:
as §1, §2

The mark [11] stands for this setting: read-out: cAMP pEC50 (converted).

Sequence of GCGR (Homo sapiens, UniProt P47871, Q131A) (P47871 26-477 Q131A): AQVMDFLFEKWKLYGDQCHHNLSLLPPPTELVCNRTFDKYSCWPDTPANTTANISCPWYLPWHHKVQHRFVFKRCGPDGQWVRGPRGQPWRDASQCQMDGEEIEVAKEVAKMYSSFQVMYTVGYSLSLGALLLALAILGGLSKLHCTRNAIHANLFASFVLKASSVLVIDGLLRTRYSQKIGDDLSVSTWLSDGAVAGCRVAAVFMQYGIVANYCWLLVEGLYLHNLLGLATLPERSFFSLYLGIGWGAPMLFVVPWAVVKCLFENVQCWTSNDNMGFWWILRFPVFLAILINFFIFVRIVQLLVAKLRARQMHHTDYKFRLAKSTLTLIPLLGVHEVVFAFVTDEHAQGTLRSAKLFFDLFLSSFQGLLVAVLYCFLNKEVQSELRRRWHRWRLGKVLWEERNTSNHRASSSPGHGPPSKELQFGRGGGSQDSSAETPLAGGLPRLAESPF
Sequence of GCGR (Homo sapiens, UniProt P47871, R199A) (P47871 26-477 R199A): as the sequence (P47871 26-477 Q131A) above, with A106Q, R174A counted along it
Sequence of GCGR (Homo sapiens, UniProt P47871, K205A) (P47871 26-477 K205A): as the sequence (P47871 26-477 Q131A) above, with A106Q, K180A counted along it
Sequence of GCGR (Homo sapiens, UniProt P47871, D195A/Q142A/R199A) (P47871 26-477 Q142A/D195A/R199A): as the sequence (P47871 26-477 Q131A) above, with A106Q, Q117A, D170A, R174A counted along it
Sequence of GCGR (Homo sapiens, UniProt P47871, Y202A) (P47871 26-477 Y202A): as the sequence (P47871 26-477 Q131A) above, with A106Q, Y177A counted along it
Sequence of GCGR (Homo sapiens, UniProt P47871, Y145A) (P47871 26-477 Y145A): as the sequence (P47871 26-477 Q131A) above, with A106Q, Y120A counted along it
Sequence of GCGR (Homo sapiens, UniProt P47871, W215A) (P47871 26-477 W215A): as the sequence (P47871 26-477 Q131A) above, with A106Q, W190A counted along it
Sequence of GCGR (Homo sapiens, UniProt P47871, Y138A) (P47871 26-477 Y138A): as the sequence (P47871 26-477 Q131A) above, with A106Q, Y113A counted along it
Sequence of GCGR (Homo sapiens, UniProt P47871, D195A) (P47871 26-477 D195A): as the sequence (P47871 26-477 Q131A) above, with A106Q, D170A counted along it
Sequence of GCGR (Homo sapiens, UniProt P47871, W87A) (P47871 26-477 W87A): as the sequence (P47871 26-477 Q131A) above, with W62A, A106Q counted along it

`CCCCCCCCCCCCCCCC(=O)N[C@@H](CCC(=O)NCCCC[C@H](NC(=O)[C@H](CC(=O)O)NC(=O)[C@H](CO)NC(=O)[C@@H](NC(=O)[C@H](Cc1ccccc1)NC(=O)[C@@H](NC(=O)CNC(=O)[C@H](CCC(N)=O)NC(=O)C(C)(C)NC(=O)[C@@H](N)Cc1c[nH]cn1)[C@@H](C)O)[C@@H](C)O)C(=O)N[C@@H](CO)C(=O)N[C@@H](CCCCN)C(=O)N[C@@H](Cc1ccc(O)cc1)C(=O)N[C@@H](CC(C)C)C(=O)N[C@@H](CC(=O)O)C(=O)N[C@@H](CCC(=O)O)C(=O)N[C@@H](CCCNC(=N)N)C(=O)N[C@@H](C)C(=O)N[C@@H](C)C(=O)N[C@@H](CCC(N)=O)C(=O)N[C@@H](CC(=O)O)C(=O)N[C@@H](Cc1ccccc1)C(=O)N[C@H](C(=O)N[C@@H](CCC(N)=O)C(=O)N[C@@H](Cc1c[nH]c2ccccc12)C(=O)N[C@@H](CC(C)C)C(=O)N[C@@H](CC(C)C)C(=O)N[C@@H](CC(=O)O)C(=O)NCC(=O)NCC(=O)N1CCC[C@H]1C(=O)N[C@@H](CO)C(=O)N[C@@H](CO)C(=O)NCC(=O)N[C@@H](C)C(=O)N1CCC[C@H]1C(=O)N1CCC[C@H]1C(=O)N1CCC[C@H]1C(=O)N[C@@H](CO)C(N)=O)C(C)C)C(=O)O` [Peptide 20]: the Emax was found to be 102 ± 2.1% in test [1]; 100 ± 2.37% in test [2]; 101 ± 1.28% in test [3] (HEK-293T); 101 ± 1.59% in [4] (HEK-293T); 99.7 ± 1.47% in test [5] (HEK-293T); 99.6 ± 2.02% in test [6]. The Emax in test [7] came out at 98.1 ± 1.54%; in [8], 101 ± 2.39%; in test [9], 103 ± 1.79%; in test [10], 103 ± 2.48%. The EC50 in [3] (setting [11]) was 0.0132 nM; in [4] (setting [11]), 0.0282 nM; in test [5] (setting [11]), 0.0129 nM.

The term Emax denotes the greatest response seen or fitted, relative to the assay's reference.
